Measurements: patent US20150272184A1, “NARINGENIN AND SALTS THEREOF FOR SWEETNESS ENHANCEMENT” (International Flavors & Fragrances Inc., priority 2014, published 2015)
Where two headings read alike, the source gives them in different places.

Columns and labels:
[1] = Paired comparison of sweetness, Reb A solutions in water with or without naringenin; assay type: in vivo, human
Text: The term “sweetness” or “sweetness intensity” is understood to mean the relative strength of sweet sensation as observed or experienced by an individual, e.g., a human, or a degree or amount of sweetness detected by a taster, for example on the scale from 0 (none) to 8 (very strong) used in sensory evaluations according to the procedure described in American Society for Testing Materials, Special Technical Publication-434: “Manual on Sensory Testing Methods,” ASTM International, West Conshohocken, Pa. (1996). Sucrose solutions of different concentrations were prepared in water. A naringenin (AuNutra Industries Inc) solution was also prepared in water (100 ppm) and used in all of the following examples. Each test group contained 26 paired samples. In each paired samples, a sucrose solution of a higher concentration was compared for sweetness against that of a lower concentration but in combination with naringenin. The results were represented by the numbers of samples rated as sweeter in paired comparisons, which were then statistically analyzed using binomial distribution for two-sided comparisons at 95% confidence level. The evaluation is reported in the following: Reb A solutions of different concentrations were prepared in water and the sweetness enhancement by naringenin was similarly evaluated.

[2] = Sweetness enhancement of artificial sweetener acesulfame potassium by naringenin; assay type: in vivo, human; conditions: acesulfame potassium (120 ppm), naringenin 100 ppm
Protocol: (§1) Sucrose solutions of different concentrations were prepared in water. A naringenin (AuNutra Industries Inc) solution was also prepared in water (100 ppm) and used in all of the following examples. In addition, the sweetness enhancement of (i) sucralose (40 ppm), (ii) aspartame (120 ppm) and (iii) acesulfame potassium (120 ppm) by naringenin was also evaluated, respectively.

[3] = Paired comparison of sweetness, sucrose & Reb A combination with or without naringenin; assay type: in vivo, human
Text: The term “sweetness” or “sweetness intensity” is understood to mean the relative strength of sweet sensation as observed or experienced by an individual, e.g., a human, or a degree or amount of sweetness detected by a taster, for example on the scale from 0 (none) to 8 (very strong) used in sensory evaluations according to the procedure described in American Society for Testing Materials, Special Technical Publication-434: “Manual on Sensory Testing Methods,” ASTM International, West Conshohocken, Pa. (1996). Sucrose solutions of different concentrations were prepared in water. A naringenin (AuNutra Industries Inc) solution was also prepared in water (100 ppm) and used in all of the following examples. Each test group contained 26 paired samples. In each paired samples, a sucrose solution of a higher concentration was compared for sweetness against that of a lower concentration but in combination with naringenin. The results were represented by the numbers of samples rated as sweeter in paired comparisons, which were then statistically analyzed using binomial distribution for two-sided comparisons at 95% confidence level. The evaluation is reported in the following: The sweetness enhancement of sucrose & Reb A combination by naringenin was also evaluated.

[4] = cited from earlier work
[5] = Sweetness enhancement of artificial sweetener sucralose by naringenin; assay type: in vivo, human; conditions: sucralose (40 ppm), naringenin 100 ppm
Protocol: as §1

[6] = cited from earlier work; remark: listed apart in the source
[7] = Flavor profile of non-fat plain yogurt with 5% sucrose plus naringenin of different concentrations; assay type: in vivo, human
Protocol: A Danone Non-Fat Plain Yogurt with 5% sucrose was prepared and used as the base. Different amount of naringenin was added to the base to obtain naringenin samples of a series of concentrations ranging from 10 to 1000 ppm.

[8] = Paired comparison of sweetness, sucrose solutions in water with or without naringenin; assay type: in vivo, human; conditions: for Number of Samples Rated Sweeter: 26 paired samples
Text: The term “sweetness” or “sweetness intensity” is understood to mean the relative strength of sweet sensation as observed or experienced by an individual, e.g., a human, or a degree or amount of sweetness detected by a taster, for example on the scale from 0 (none) to 8 (very strong) used in sensory evaluations according to the procedure described in American Society for Testing Materials, Special Technical Publication-434: “Manual on Sensory Testing Methods,” ASTM International, West Conshohocken, Pa. (1996). Sucrose solutions of different concentrations were prepared in water. A naringenin (AuNutra Industries Inc) solution was also prepared in water (100 ppm) and used in all of the following examples. Each test group contained 26 paired samples. In each paired samples, a sucrose solution of a higher concentration was compared for sweetness against that of a lower concentration but in combination with naringenin. The results were represented by the numbers of samples rated as sweeter in paired comparisons, which were then statistically analyzed using binomial distribution for two-sided comparisons at 95% confidence level.

[9] = Flavor profile of Reb A water solution (10 ppm) plus naringenin of different concentrations; assay type: in vivo, human
Protocol: A Reb A water solution (10 ppm) was prepared and used as the base. Different amount of naringenin was added to the base to obtain naringenin samples of a series of concentrations ranging from 10 to 1000 ppm.

[10] = Sweetness enhancement of artificial sweetener aspartame by naringenin; assay type: in vivo, human; conditions: aspartame (120 ppm), naringenin 100 ppm
Protocol: as §1

[11] = pair Sucrose (0.5%) vs Naringenin (100 ppm in water), p 0.40

Compound: O=C1CC(c2ccc(O)cc2)Oc2cc(O)cc(O)c21 (centres unmarked) [Naringenin, 2,3-dihydro-5,7-dihydroxy-2-(4-hydroxyphenyl)-4H-1-benzopyran-4-one]
- enhancement of Reb A sweetness ([1]; naringenin 100 ppm): significantly enhanced
- enhancement compared with that provided by additional Reb A ([1]; naringenin 100 ppm with 100 ppm Reb A, ppm of Reb A): < 40 ppm
- sweetness enhancement [2]: enhanced sweetness with an impact up front
- enhancement of the sweetness of sucrose & Reb A combination ([3]; naringenin 100 ppm): significantly enhanced
- enhancement compared with that achieved by Reb A ([3]; naringenin 100 ppm with Reb A (10 ppm) + Sucrose (4%), ppm of Reb A): > 20 ppm
- solubility ([4]; in aqueous solutions): sparingly soluble
- solubility ([4]; in ethanol, ether, oils (e.g., olive oil or citrus oil) and supercritical carbon dioxide): soluble
- sweetness enhancement [5]: enhanced sweetness with an impact up front
- aftertaste modifier effect ([6]; U.S. Publication No. 2009/0004360): decreases the perception of bitterness or undesirable flavor
- taste of naringenin itself ([6]; in vivo): weak to no sweet taste
- taste and flavor performance ([6]; tested up to a concentration of 10 ppm, U.S. Publication No. 2014/0170082): exhibits bitterness and unpleasant aftertaste, and performs poorly on flavor
- Flavor Profile ([7]; Sample 2, naringenin 10 ppm in yogurt with 5% sucrose): Same as the base
- Flavor Profile ([7]; Sample 3, naringenin 50 ppm in yogurt with 5% sucrose): Minor increase in sweetness
- Flavor Profile ([7]; Sample 4, naringenin 75 ppm in yogurt with 5% sucrose): Slightly more increase in sweetness
- Flavor Profile ([7]; Sample 5, naringenin 100 ppm in yogurt with 5% sucrose): Clear increase in sweetness
- Flavor Profile ([7]; Sample 6, naringenin 250 ppm in yogurt with 5% sucrose): More intense and full-body sweetness
- Flavor Profile ([7]; Sample 7, naringenin 500 ppm in yogurt with 5% sucrose): Full-body sweetness with good impact
- concentration at which naringenin exhibited sweetness enhancement ([7]; yogurt with 5% sucrose): ≥ 50 ppm
- concentration at which undesirable off-notes developed ([7]; yogurt with 5% sucrose): 1000 ppm
- sweetness enhanced to a level of a sucrose solution ([8]; naringenin 100 ppm in combination with a 4% sucrose solution): 4.8%
- intrinsic sweetness, approximate level of a sucrose solution ([8]; naringenin 100 ppm in water alone): ~0.5%
- enhancement of sucrose sweetness ([8]; naringenin 100 ppm with 4% sucrose solution): more than an additive effect
- Number of Samples Rated Sweeter [8, 11]: 16
- concentration at which naringenin exhibited sweetness enhancement ([9]; Reb A water solution (10 ppm)): ≥ 50 ppm
- concentration at which undesirable off-notes developed ([9]; Reb A water solution (10 ppm)): 750 ppm
- Flavor Profile ([9]; Sample 2, naringenin 10 ppm in Reb A water solution (10 ppm)): Same as that of the base
- Flavor Profile ([9]; Sample 3, naringenin 50 ppm in Reb A water solution (10 ppm)): Very minor increase in sweetness
- Flavor Profile ([9]; Sample 4, naringenin 75 ppm in Reb A water solution (10 ppm)): Slightly more increase in sweetness
- Flavor Profile ([9]; Sample 5, naringenin 100 ppm in Reb A water solution (10 ppm)): Clear increase in sweetness with an impact up
- Flavor Profile ([9]; Sample 6, naringenin 250 ppm in Reb A water solution (10 ppm)): Intense sweetness with a stronger impact up
- Flavor Profile ([9]; Sample 7, naringenin 500 ppm in Reb A water solution (10 ppm)): Intense sweetness with a strong impact up front
- Flavor Profile ([9]; Sample 8, naringenin 750 ppm in Reb A water solution (10 ppm)): More intense sweetness with increased waxy
- sweetness enhancement [10]: enhanced sweetness with an impact up front

Compound: C=C1C[C@@]23CC[C@H]4[C@@](C)(CCC[C@@]4(C)C(=O)O[C@@H]4O[C@H](CO)[C@@H](O)[C@H](O)[C@H]4O)[C@@H]2CC[C@]1(O[C@@H]1O[C@H](CO)[C@@H](O)[C@H](O[C@@H]2O[C@H](CO)[C@@H](O)[C@H](O)[C@H]2O)[C@H]1O[C@@H]1O[C@H](CO)[C@@H](O)[C@H](O)[C@H]1O)C3 [Reb A, rebaudioside A, reference compound]
- Number of Samples Rated Sweeter ([1]; pair 140 ppm Reb A vs 100 ppm Reb A + Naringenin (100 ppm), p 0.05, significant): 19
- Number of Samples Rated Sweeter ([1]; pair Reb A (120 ppm) vs Reb A (120 ppm) + Naringenin (100 ppm), p 0.01, significant): 5

Compound: OC[C@H]1O[C@@](CO)(O[C@H]2O[C@H](CO)[C@@H](O)[C@H](O)[C@H]2O)[C@@H](O)[C@@H]1O [Sucrose, sucrose, reference compound]
- Number of Samples Rated Sweeter [8, 11]: 10
- Number of Samples Rated Sweeter ([8]; pair Sucrose (4.4%) vs Sucrose (4%) + Naringenin (100 ppm), p 0.01, significant): 6
- Number of Samples Rated Sweeter ([8]; pair Sucrose (4.8%) vs Sucrose (4%) + Naringenin (100 ppm), p >0.40): 14
